“And” between values parts separate entries of the source, which are not always exact repeats. Equal values may be shown once. “Also recorded” adds a separate entry of the source. Read-outs that look alike come from different tables or passages of the source.
Experiments:
[1] = biological target: T1, VEGFR2 (Homo sapiens, UniProt P35968); assay: VEGFR2/NFAT Reporter HEK293 luciferase assay of VEGF signaling; assay type: cell-based; details: VEGFR2-HEK cells; for IC50: 20 ng/ml VEGF165; for Dark/Light: ratio of IC50 dark to IC50 light
T1 construct: host or cells: HEK293 (VEGFR2/NFAT Reporter recombinant cell line)
T1 sequence (P35968 20-1356): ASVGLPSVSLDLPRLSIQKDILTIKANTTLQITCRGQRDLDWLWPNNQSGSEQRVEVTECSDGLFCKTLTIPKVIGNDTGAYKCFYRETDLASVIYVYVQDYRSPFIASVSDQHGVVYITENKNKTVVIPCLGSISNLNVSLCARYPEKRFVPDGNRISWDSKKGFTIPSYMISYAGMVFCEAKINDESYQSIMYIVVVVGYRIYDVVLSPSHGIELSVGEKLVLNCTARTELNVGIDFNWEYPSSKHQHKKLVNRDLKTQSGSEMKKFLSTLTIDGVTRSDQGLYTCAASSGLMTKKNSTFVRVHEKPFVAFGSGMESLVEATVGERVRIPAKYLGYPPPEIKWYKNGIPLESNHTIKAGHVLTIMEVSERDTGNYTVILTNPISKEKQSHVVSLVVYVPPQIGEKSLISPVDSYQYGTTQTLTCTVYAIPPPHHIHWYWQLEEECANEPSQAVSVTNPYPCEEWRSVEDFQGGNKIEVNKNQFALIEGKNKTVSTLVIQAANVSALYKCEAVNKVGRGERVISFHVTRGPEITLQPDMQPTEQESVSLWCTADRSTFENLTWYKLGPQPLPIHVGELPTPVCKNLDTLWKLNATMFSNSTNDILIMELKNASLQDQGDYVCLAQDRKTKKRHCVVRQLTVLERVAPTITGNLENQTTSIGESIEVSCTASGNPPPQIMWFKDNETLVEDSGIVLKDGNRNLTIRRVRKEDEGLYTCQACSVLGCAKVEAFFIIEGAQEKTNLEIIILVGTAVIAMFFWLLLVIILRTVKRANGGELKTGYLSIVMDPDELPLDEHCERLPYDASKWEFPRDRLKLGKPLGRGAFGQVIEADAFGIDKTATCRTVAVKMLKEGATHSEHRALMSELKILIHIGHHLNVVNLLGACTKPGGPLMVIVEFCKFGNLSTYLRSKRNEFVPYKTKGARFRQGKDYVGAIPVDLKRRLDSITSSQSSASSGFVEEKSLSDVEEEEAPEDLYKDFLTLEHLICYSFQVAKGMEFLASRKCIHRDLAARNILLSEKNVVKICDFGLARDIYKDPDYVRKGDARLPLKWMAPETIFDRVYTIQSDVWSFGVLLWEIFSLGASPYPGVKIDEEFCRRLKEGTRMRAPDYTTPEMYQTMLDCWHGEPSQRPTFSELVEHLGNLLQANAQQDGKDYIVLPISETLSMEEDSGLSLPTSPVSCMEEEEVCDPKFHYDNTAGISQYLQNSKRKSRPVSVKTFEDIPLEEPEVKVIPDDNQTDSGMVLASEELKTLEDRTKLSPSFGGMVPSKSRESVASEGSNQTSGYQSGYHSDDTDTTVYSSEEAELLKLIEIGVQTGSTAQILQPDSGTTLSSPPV
Experimental: We have cultured the cells and conducted the measurements according to the manufacturer's instructions.
On the day preceding the measurement, 40 000 recombinant HEK cells were seeded into each well of a 96 well plate in a way that the experiments could be conducted in triplicates. […] For the conditions requiring irradiation, the plate was placed under a cold white LED light source within the incubator (37° C., 5% CO2) for the first 10 minutes of the 1-hour-long incubation with the inhibitors to imitate day-light, while the other plate was kept in the dark (also at 37° C., 5% CO2). Following the pre-incubation with inhibitors we treated the cells for 4 hours with VEGF without removing the inhibitors. For this purpose we used 20 ng/ml of commercially available human VEGF165 (Sf9 derived, from BPS BioScience Inc., Cat. No.: 91001-1) added directly into the cell-culture medium.
The IC50 values were calculated using the GraphPad Prism software.

[2] = system: human retinal microvascular endothelial cells (HRMEC); assay: tubulogenesis (in vitro angiogenesis) assay, number of meshes; assay type: cell-based; details: for IC50 / Dark/Light: HRMEC tubulogenesis; for Dark/Light: ratio of IC50 dark to IC50 light
From the text: These cells preserve their endothelial nature, and when cultured on an appropriate extracellular matrix, they spontaneously form a network that corresponds to a network of capillaries. Images of such networks taken with a microscope can be quantified, and several parameters (such as the number of segments, number of closed loops, number of junction points) of the network can be quantified and used as a parameter describing the angiogenesis in vitro [Staton et al., 2009].
The inventors have applied their proprietary azidated inhibitors described in the present patent in an ascending series of concentrations. For all the said azidated inhibitors, the in vitro angiogenesis experiments were carried out both in complete darkness and in defined illumination conditions. The number of closed loops (number of meshes) was identified using an image recognition algorithm, and an IC50 curve was fitted onto the number of meshes plotted against substance concentration. […] These experiments thus provided further proof, that light increases the inhibitory potential of the novel azidated compounds described in the present patent.
In vitro angiogenesis (hereinafter referred to as “tubulogenesis”) mimicks several features of angiogenetic processes observed in vivo in vertebrate animals [Staton et al., 2009] and is based on the VEGF-dependent self-organizing capacity of endothelial cells via which tube-like structures emerge that share many properties with in vivo observed blood vessels. Therefore, the inhibitory potential of the newly synthetized molecules of the present invention was also assessed in tubulogenesis assay using human retinal microvascular endothelial cells (HRMEC) derived from post mortem human donors. When seeded onto a collagen and laminin containing matrix, HRMEC spontaneously form a two-dimensional blood-vessel-like network displaying several quantifiable features that can be used to measure angiogenic potential [Staton et al., 2009]. The newly synthetized, PMO-containing VEGFR inhibitors were added to the culture medium in increasing concentrations to test whether they can inhibit the spontaneous formation of the network from HRMEC. The increasing concentrations allowed the inventors to calculate the IC50 values for each inhibitor molecule. The results of these experiments (table 2.) have shown that the new, PMO-containing azidated inhibitors were capable of inhibiting the tubulogenesis. Furthermore, in the presence of light, the inhibition was stronger than in the dark, providing evidence for the photoactivation and the concomitant covalent binding of the azidated inhibitors to their target receptors.
To test the inhibitory effect of the compounds with light and without light on tubulogenesis [Staton et al., 2009], we have used human retinal microvascular endothelial cells (HRMEC) from Cell Systems (Kirkland, WA 98033, cat. N^o: ACBRI 181). VEGF165 (Invitrogen) was only used as a positive control in these experiments, otherwise tubulogenesis relied on endogenous VEGF produced by the culture.
Assays were performed in a 96-well cell culture plate (Biologix). The basement membrane matrix Geltrex (Invitrogen) was thawed on ice overnight before use. 50 μl Geltrex was added to each well with a chilled pipette, then the plate was centrifuged at 2000 rpm for 10 min at 4° C. Subsequently the matrix was let solidify in a humidified incubator at 37° C. for at least 30 minutes. Before seeding, HRMEC cells were treated with compounds (0.1 nM-10 μM) in EBM-2 medium (Lonza) in the dark. After 5 minutes, 100 μl of suspension of treated cells was seeded into each Geltrex-coated well of the plate at a density of 10^3 cells/well and then exposed to light treatment (cold white LED light) for 10 min at 37° C. and 5% CO2 or kept in the dark (control plate) in the incubator during light treatment. Subsequently both the irradiated and the control plates were left in the incubator for 12 hours so that the tubulogenesis can proceed. […]

[3] = system: neovascular AMD; details: oral, phase I, patients; cited from earlier work
[4] = system: neovascular AMD; details: oral, phase II, trial prematurely stopped; cited from earlier work
[5] = cold white LED light for the first 10 min of 1 h pre-incubation, read-out: IC50 Light
[6] = kept in the dark, read-out: IC50 Dark
[7] = Homo sapiens, HRMEC, 10 min, cold white LED light 10 min, no Ko-143, read-out: IC50 Light
[8] = Homo sapiens, HRMEC, dark, no Ko-143, read-out: IC50 Dark

Row | SMILES | IC50 [1, 5] [nM] | IC50 [1, 6] | Dark/Light [1] | IC50 [2, 7] [nM] | IC50 [2, 8] [nM] | IC50 ([2]; cold white LED light 10 min, 500 nM of Ko-143 in the medium, read-out: IC50 Light) [nM] | IC50 ([2]; Homo sapiens, HRMEC, 10 min, cold white LED light 10 min, 500 nM of Ko-143 in the medium, read-out: IC50 Light) [nM] | Dark/Light ([2]; no Ko-143) | Dark/Light ([2]; 500 nM of Ko-143) | effect on tubulogenesis ([2]; result in words) | efficacy against neovascular AMD [3] | adverse effects [4]
1 | Cc1[nH]c(/C=C2\C(=O)Nc3cc(Cl)c(N=[N+]=[N-])cc32)c(C)c1C(=O)N[C@H]1CCN(C(=O)N(C)C)C1 [5-defluoro-5-azido-6-chloro-vorolanib] | 0.921 | 57.8 nM | 62.80 | – | – | 173 | 135 | – | 3.97 | – | – | –
2 | CCN(CC)CCNC(=O)c1c(C)[nH]c(/C=C2\C(=O)Nc3cc(N=[N+]=[N-])ccc32)c1C [5-defluoro-6-azido-sunitinib (2), 5-defluoro-6-azido-sunitinib] | 9.3 | 93.7 nM | 10.074 | 432 | 1090 | – | – | 2.52 | – | – | – | –
3 | CCN(CC)CCNC(=O)c1c(C)[nH]c(/C=C2\C(=O)Nc3cc(N=[N+]=[N-])c(F)cc32)c1C [6-azido-sunitinib (3), 6-azido-sunitinib] | 11.7 | 53.2 nM | 4.57 | 87 | 228 | – | – | 2.62 | – | – | – | –
4 | COc1ccc2c3c([nH]c2c1)[C@H](CC(C)C)N1C(=O)[C@H](CCC(=O)OC(C)(C)C)NC(=O)[C@@H]1C3 [Ko-143, reference compound] | – | – | – | – | – | – | – | – | – | no effect | – | –
5 | Cc1[nH]c(/C=C2\C(=O)Nc3ccc(F)cc32)c(C)c1C(=O)N[C@H]1CCN(C(=O)N(C)C)C1 [vorolanib] | – | – | – | – | – | – | – | – | – | – | effective | hepatobiliary and gastrointestinal adverse effects; also recorded: intolerable levels of side effects

Further compounds by falling IC50 [1, 5], results first:

Row | IC50 [1, 5] [nM] | IC50 [1, 6] | Dark/Light [1] | IC50 [2, 7] [nM] | IC50 [2, 8] [nM] | IC50 ([2]; cold white LED light 10 min, 500 nM of Ko-143 in the medium, read-out: IC50 Light) [nM] | IC50 ([2]; Homo sapiens, HRMEC, 10 min, cold white LED light 10 min, 500 nM of Ko-143 in the medium, read-out: IC50 Light) [nM] | SMILES | Dark/Light ([2]; no Ko-143) | Dark/Light ([2]; 500 nM of Ko-143) | effect on tubulogenesis ([2]; result in words) | efficacy against neovascular AMD [3] | adverse effects [4]
6 | 36.8 | 263 nM | 7.136 | 951 | 3540 | – | – | CCN(CC)CCNC(=O)c1c(C)[nH]c(/C=C2\C(=O)Nc3ccc(N=[N+]=[N-])cc32)c1C [5-defluoro-5-azido-sunitinib (1), 5-defluoro-5-azido-sunitinib] | 3.72 | – | – | – | –
7 | 10.1 | 53.4 nM | 5.29 | – | – | – | – | Cc1[nH]c(/C=C2\C(=O)Nc3cc(N=[N+]=[N-])ccc32)c(C)c1C(=O)N[C@H]1CCN(C(=O)N(C)C)C1 [5-defluoro-6-azido-vorolanib (7), 5-defluoro-6-azido-vorolanib] | – | – | – | – | –
8 | 8.86 | 69 nM | 7.79 | – | – | – | – | CCN(CC)CCNC(=O)c1c(C)[nH]c(/C=C2\C(=O)Nc3cc(F)c(N=[N+]=[N-])cc32)c1C [5-defluoro-5-azido-6-fluoro-sunitinib] | – | – | – | – | –
9 | 3.5 | 60.4 nM and 60.7 nM | 17.25 | – | – | – | – | CCN(CC)CCNC(=O)c1c(C)[nH]c(/C=C2\C(=O)Nc3cc(Br)c(N=[N+]=[N-])cc32)c1C [5-defluoro-5-azido-6-bromo-sunitinib (6), 5-defluoro-5-azido-6-bromo-sunitinib] | – | – | – | – | –
10 | 2.23 | 40.4 nM | 18.12 | 168 | 655 | – | – | CCN(CC)CCNC(=O)c1c(C)[nH]c(/C=C2\C(=O)Nc3cc(Cl)c(N=[N+]=[N-])cc32)c1C [5-defluoro-5-azido-6-chloro-sunitinib] | 3.48 | – | – | – | –

From patent US20260165956A1, “IN VIVO TARGETING OF THERAPEUTIC MOLECULES TO THE RETINA VIA THE OPTICAL SYSTEM OF THE EYE” (SEMMELWEIS EGYETEM, priority 2022, published 2026)
